Patent publication US9149441B2 (priority 2008, dated 2015)

Assays:
S. Aureus = experiment: Vancomycin formulations in S. Aureus septic shock rat model; assay type: in vivo; conditions: for Survival: simultaneous treatment group, peritonitis rat model (Table 8), 15 mg/kg twice/day for 3 days
Description: The efficacy of vancomycin nanospheres as compared to the solution formulation was determined in a septic shock rat model.
Three scenarios were evaluated:
Group 1. Determination of the efficacy of the encapsulated and solution formulation of vancomycin. [Pre-treatment Group].
(§1) The nanospheres and solution vancomycin formulations (15 mg/kg twice/day for 3 days) or blank nanospheres (control) were injected to different groups of animals 4 hrs prior to the animals being injected with S. Aureus (i.p.; 1.0×10^8 cfu/mL). Blood samples (0.5 mL) were obtained to determine the bacterial count at 0, 4, 24, 48, 96 and 120 hrs.
Group 2. Determination of the efficacy of the encapsulated and solution formulations of vancomycin. [Simultaneous treatment Group]
(§2) In this set of experiments, S. Aureus bacteria (1.0×10^8 cfu/mL) were administered i.p. and simultaneously the NS and solution gentamicin formulations (15 mg/kg twice/day for 3 days) or blank nanospheres (control) were injected subcutaneously to different groups of rats. Blood samples (0.5 mL) were obtained to determine the bacterial count at 0, 4, 24, 48, 96 and 120 hrs.
Group 3. Determination of the efficacy of the nanosphere and solution formulation of vancomycin. [Delayed treatment Group].
as §2, with “i.p. to different groups of rats” for “i.p.”, “4 hrs following infection” for “simultaneously”, “injected.” for “injected subcutaneously to different groups of rats.”

E. Coli = experiment: Gentamicin formulations in E. Coli septic shock (peritonitis) rat model; assay type: in vivo; conditions: for % inhibition of the bacterial growth in the blood / Bact. count (cfu/mL): 120 hrs; for Bact. count (cfu/mL): blood; for Survival: peritonitis rat model (Table 5)
Description: Gentamicin in the solution and the nanosphere form were tested on rats in order to evaluate the E. Coli distribution in the body, also the two formulations were evaluated in septic shock rat models.
Group 1. Determination of the efficacy of the encapsulated and solution formulation of gentamicin. [Pre-treatment Group].
as §1, with “gentamicin” for “vancomycin”, “E. Coli” for “S. Aureus”, “1.1×10^9” for “1.0×10^8”, “samples” for “samples (0.5 mL)”
Group 2. Determination of the efficacy of the encapsulated and solution formulations of gentamicin. [Simultaneous treatment Group]
as §2, with “E. Coli” for “S. Aureus”, “(1.1×10^9” for “(1.0×10^8”, “samples” for “samples (0.5 mL)”
Group 3. Determination of the efficacy of the nanosphere and solution formulation of gentamicin. [Delayed treatment Group].
In this set of experiments, E. Coli bacteria (1.1×10^9 cfu/mL) were administered i.p. to different groups of rats and 4 hrs following infection the NS and solution gentamicin formulations (15 mg/kg twice/day for 3 days) or blank nanospheres (control) were injected. Blood samples were obtained to determine the bacterial count at 0, 4, 24, 48, 96 and 120 hrs.

red blood cells (RBCs) = experiment: Potassium release from red blood cells (membrane toxicity); assay type: cell-based; conditions: all experimental concentrations; solution effect rising up to 0.08 mg/ml
Text: Potassium is found in high concentrations inside the red blood cells (RBCs). Any damage to membrane will result in leaking out of potassium from the RBCs.

Compound | Survival (S. Aureus) | Bacterial count in the blood vs blank BSA nanospheres (S. Aureus; text Group 1, FIG. 14 (prophylactic treatment)) | Bacterial count in the blood vs blank BSA nanospheres (S. Aureus; text Group 2, FIG. 15 (simultaneous treatment)) | % inhibition of the bacterial growth in the blood (E. Coli; delayed treatment group (Table 7), listed as Solution) | % inhibition of the bacterial growth in the blood (E. Coli; delayed treatment group (Table 7), listed as gentamicin solution) | % inhibition of the bacterial growth in the blood (E. Coli; prophylactic treatment group (Table 6)) | % inhibition of the bacterial growth in the blood (E. Coli; simultaneous treatment group (Table 4)) | % inhibition of the bacterial growth in the blood (E. Coli; simultaneous treatment group (Table 4), listed as gentamicin solution) | Bact. count (cfu/mL) (E. Coli; delayed treatment group) | Bact. count (cfu/mL) (E. Coli; simultaneous treatment group, 15 mg/kg twice/day for 3 days) | Survival (E. Coli; simultaneous treatment group) | Survival (E. Coli; simultaneous treatment group, listed as gentamicin solution) | Bacterial count in the blood vs blank BSA nanospheres (S. Aureus; text Group 3, FIG. 16 (delayed treatment)) | Potassium release from RBCs (red blood cells (RBCs))
CN[C@H](CC(C)C)C(=O)N[C@H]1C(=O)N[C@@H](CC(N)=O)C(=O)N[C@H]2C(=O)N[C@H]3C(=O)N[C@H](C(=O)N[C@H](C(=O)O)c4cc(O)cc(O)c4-c4cc3ccc4O)[C@H](O)c3ccc(c(Cl)c3)Oc3cc2cc(c3O[C@@H]2O[C@H](CO)[C@@H](O)[C@H](O)[C@H]2O[C@H]2C[C@](C)(N)[C@H](O)[C@H](C)O2)Oc2ccc(cc2Cl)[C@H]1O [Vancomycin Solution, vancomycin] | 40% | significant lower bacterial count | significant lower bacterial count | – | – | – | – | – | – | – | – | – | – | –
gentamicin [Gentamicin Solution] | 40% | – | – | 15% | about 15% | about 35% | 75% | about 75% | 110 cfu/mL | 35 cfu/mL | 35% | 55% | significant lower bacterial count | –
C[C@@H]1[C@H](O)[C@@H](C)/C=C/C=C/C=C/C=C/C=C/C=C/C=C/[C@H](O[C@@H]2O[C@H](C)[C@@H](O)[C@H](N)[C@@H]2O)C[C@@H]2O[C@](O)(C[C@@H](O)C[C@@H](O)[C@H](O)CC[C@@H](O)C[C@@H](O)CC(=O)O[C@H]1C)C[C@H](O)[C@H]2C(=O)O [solution formulation of Amphotericin B, Amphotericin B] | – | – | – | – | – | – | – | – | – | – | – | – | – | significant release of potassium from the RBCs
